Data as given in ChEMBL document CHEMBL1201862, “PubChem BioAssay data set” (2004).
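Protocol summary: plate cells (96-well), add compound at 5 concentrations, incubate 48 h, interpolate endpoints linearly. The concentration for 50% growth inhibition is given as GI50.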 The source made the active and inactive calls. No stated cut-off is given here; in the data, active = GI50 up to about 1.1 µM and inactive = higher.

How the values were obtained:
Experiment in all cases: NCI tumour cell line growth inhibition, 48 h
EKVX = system: EKVX
SF-295 = system: SF-295
UACC-257 = system: UACC-257
NCI-H460 = system: NCI-H460
HT-29 = system: HT-29
HCC 2998 = system: HCC 2998
RXF 393 = system: RXF 393
HCT-116 = system: HCT-116
A498 = system: A498
U-251 = system: U-251
MDA-N = system: MDA-N
ACHN = system: ACHN
SNB-75 = system: SNB-75
SN12C = system: SN12C
UACC-62 = system: UACC-62
KM12 = system: KM12
CCRF-CEM = system: CCRF-CEM
DU-145 = system: DU-145
SK-MEL-2 = system: SK-MEL-2
SF-268 = system: SF-268
OVCAR-4 = system: OVCAR-4
Hs-578T = system: Hs-578T
MDA-MB-231 = system: MDA-MB-231
OVCAR-3 = system: OVCAR-3
M14 = system: M14
LOX IMVI = system: LOX IMVI
HL-60 = system: HL-60
COLO 205 = system: COLO 205
786-0 = system: 786-0
RPMI-8226 = system: RPMI-8226
BT-549 = system: BT-549
HCT-15 = system: HCT-15
PC-3 = system: PC-3
UO-31 = system: UO-31
SK-MEL-28 = system: SK-MEL-28
NCI-H226 = system: NCI-H226
SF-539 = system: SF-539
A549 = system: A549
OVCAR-5 = system: OVCAR-5
Malme-3M = system: Malme-3M
TK-10 = system: TK-10
MOLT-4 = system: MOLT-4
MCF7 = system: MCF7
NCI/ADR-RES = system: NCI/ADR-RES
SK-OV-3 = system: SK-OV-3
HOP-62 = system: HOP-62
SNB-19 = system: SNB-19
SW-620 = system: SW-620
CAKI-1 = system: CAKI-1
MDA-MB-435 = system: MDA-MB-435
HOP-92 = system: HOP-92
NCI-H23 = system: NCI-H23
OVCAR-8 = system: OVCAR-8
K562 = system: K562
SK-MEL-5 = system: SK-MEL-5
T47D = system: T47D
SR = system: SR
NCI-H522 = system: NCI-H522

Measured: GI50

OC1CCN2Cc3ccccc3N=C12 (stereo unspecified)
> 100 µM: HCT-15
inactive: EKVX > 100 µM | SF-295 > 100 µM | UACC-257 > 100 µM | NCI-H460 > 100 µM | HT-29 > 100 µM | HCC 2998 > 100 µM | RXF 393 > 100 µM | HCT-116 > 100 µM | A498 > 100 µM | U-251 > 100 µM | MDA-N > 100 µM | ACHN > 100 µM | SNB-75 > 100 µM | SN12C > 100 µM | UACC-62 > 100 µM | KM12 > 100 µM | CCRF-CEM > 100 µM | DU-145 > 100 µM | SK-MEL-2 > 100 µM | SF-268 > 100 µM | OVCAR-4 > 100 µM | Hs-578T > 100 µM | MDA-MB-231 > 100 µM | OVCAR-3 > 100 µM | M14 > 100 µM | LOX IMVI > 100 µM | HL-60 > 100 µM | COLO 205 > 100 µM | 786-0 > 100 µM | RPMI-8226 > 100 µM | BT-549 > 100 µM | PC-3 > 100 µM | UO-31 > 100 µM | SK-MEL-28 > 100 µM | NCI-H226 > 100 µM | SF-539 > 100 µM | A549 > 100 µM | OVCAR-5 > 100 µM | Malme-3M > 100 µM | TK-10 > 100 µM | MOLT-4 > 100 µM | MCF7 > 100 µM | NCI/ADR-RES > 100 µM | SK-OV-3 > 100 µM | HOP-62 > 100 µM | SNB-19 > 100 µM | SW-620 > 100 µM | CAKI-1 > 100 µM | MDA-MB-435 > 100 µM | HOP-92 > 100 µM | NCI-H23 > 100 µM | OVCAR-8 > 100 µM | K562 > 100 µM | SK-MEL-5 > 100 µM

CCC(Cc1cnc2nc(N)nc(N)c2n1)c1ccc(C(=O)NC(CCC(=O)O)C(=O)O)cc1 (stereo unspecified)
active: EKVX 0.000249 µM | SF-295 0.01 µM | UACC-257 0.103 µM | NCI-H460 0.000315 µM | HT-29 0.000327 µM | HCT-116 < 0.0001 µM | MDA-N 0.000575 µM | ACHN 0.000456 µM | SNB-75 0.329 µM | SN12C 0.000551 µM | UACC-62 0.000396 µM | KM12 0.00069 µM | CCRF-CEM < 0.0001 µM | DU-145 0.000548 µM | SF-268 0.00075 µM | M14 0.000899 µM | LOX IMVI 0.000247 µM | HL-60 < 0.0001 µM | 786-0 0.000146 µM | PC-3 < 0.0001 µM | UO-31 0.000382 µM | SF-539 0.01 µM | A549 0.000507 µM | OVCAR-5 0.01 µM | SR 0.01 µM | Malme-3M 0.0127 µM | MOLT-4 0.000264 µM | NCI-H522 0.01 µM | MCF7 0.0628 µM | NCI/ADR-RES 0.000711 µM | HOP-62 0.00515 µM | SNB-19 0.00419 µM | SW-620 0.000176 µM | CAKI-1 0.01 µM | MDA-MB-435 0.000736 µM | NCI-H23 0.000621 µM | OVCAR-8 0.000624 µM | K562 < 0.0001 µM | SK-MEL-5 0.00539 µM
0.000632 µM: HCT-15
inactive: A498 > 100 µM | T47D 1.78 µM | Hs-578T 10.7 µM | COLO 205 3.24 µM | BT-549 > 100 µM | TK-10 > 100 µM
